Measurements from ChEMBL document CHEMBL1201862, “PubChem BioAssay data set” (2004).
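Grown in 96-well plates, cells were treated for 48 hours with each compound at five concentrations. Insufficient inhibition: endpoint recorded as highest concentration tested. GI50 marks 50% less growth.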 Calls of active or inactive are those of the source. Cut-off read from the data, not from the text of the source: active = GI50 up to about 1.1 µM and inactive = higher.

Assays:
Experiment in all cases: NCI anticancer screen, dose series, 48 h
[1] = system: A549
[2] = system: CAKI-1
[3] = system: HCT-116
[4] = system: HL-60
[5] = system: LOX IMVI
[6] = system: M14
[7] = system: MCF7
[8] = system: MDA-MB-435
[9] = system: MDA-N
[10] = system: Malme-3M
[11] = system: NCI-H23
[12] = system: NCI-H460
[13] = system: OVCAR-3
[14] = system: OVCAR-8
[15] = system: RXF 393
[16] = system: SF-295
[17] = system: SF-539
[18] = system: SN12C
[19] = system: SNB-75
[20] = system: UO-31

Compound	GI50 [1]	GI50 [2]	GI50 [3]	GI50 [4]	GI50 [5]	GI50 [6]	GI50 [7]	GI50 [8]	GI50 [9]	GI50 [10]	GI50 [11]	GI50 [12]	GI50 [13]	GI50 [14]	GI50 [15]	GI50 [16]	GI50 [17]	GI50 [18]	GI50 [19]	GI50 [20]
CN(C)c1ccc(/C=N/NC(=O)c2cnc3ccccc3c2)cc1	> 100 µM (inactive)	> 100 µM (inactive)	> 100 µM (inactive)	> 100 µM (inactive)	> 100 µM (inactive)	> 100 µM (inactive)	> 100 µM (inactive)	4.03 µM (inactive)	4.71 µM (inactive)	18.6 µM (inactive)	> 100 µM (inactive)	> 100 µM (inactive)	> 100 µM (inactive)	98.2 µM (inactive)	19.9 µM (inactive)	71.4 µM (inactive)	52 µM (inactive)	> 100 µM (inactive)	21.9 µM (inactive)	> 100 µM (inactive)
CNCCCNC1(c2cc3ccccc3s2)CCCCC1	7 µM (inactive)	10.1 µM (inactive)	3.56 µM (inactive)	1.43 µM (inactive)	2.79 µM (inactive)	3.8 µM (inactive)	4.12 µM (inactive)	2.55 µM (inactive)	2.2 µM (inactive)	2.28 µM (inactive)	16.4 µM (inactive)	2.86 µM (inactive)	12.5 µM (inactive)	14.5 µM (inactive)	1.36 µM (inactive)	14.2 µM (inactive)	2.36 µM (inactive)	5.52 µM (inactive)	6.17 µM (inactive)	2.32 µM (inactive)
COC1=C(C)C(=O)C2=C(C1=O)C1C3CC4=C(C(=O)C(OC)=C(C)C4=O)C(CNC(=O)C(C)O)N3C(C#N)C(C2)N1C (stereo not drawn)	0.166 µM (active)	0.037 µM (active)	0.0465 µM (active)	< 0.01 µM (active)	< 0.01 µM (active)	< 0.0112 µM (active)	< 0.01 µM (active)	< 0.01 µM (active)	< 0.01 µM (active)	< 0.01 µM (active)	< 0.0178 µM (active)	0.0159 µM (active)	< 0.01 µM (active)	< 0.01 µM (active)	< 0.0121 µM (active)	0.0579 µM (active)	< 0.01 µM (active)	< 0.01 µM (active)	< 0.0104 µM (active)	0.101 µM (active)
CNC(=S)N/N=C/c1cccc(C)n1	39 µM (inactive)	47.6 µM (inactive)	31.6 µM (inactive)	> 45.5 µM (inactive)	24.7 µM (inactive)	21.3 µM (inactive)	38.6 µM (inactive)	45 µM (inactive)	42 µM (inactive)	37.2 µM (inactive)	31.4 µM (inactive)	19.9 µM (inactive)	29.9 µM (inactive)	23.6 µM (inactive)	38.5 µM (inactive)	32.7 µM (inactive)	18.4 µM (inactive)	26.4 µM (inactive)	37.9 µM (inactive)	20.7 µM (inactive)
CCN1CCC(O)(/C=C/c2cccc(C)c2)C(C(=O)/C=C/c2cccc(C)c2)C1 (stereo not drawn)	2.29 µM (inactive)	2 µM (inactive)	2.18 µM (inactive)	61.4 µM (inactive)	2.17 µM (inactive)	2.58 µM (inactive)	1.9 µM (inactive)	2.02 µM (inactive)	2.66 µM (inactive)	1.57 µM (inactive)	2.21 µM (inactive)	2.12 µM (inactive)	3.48 µM (inactive)	2.87 µM (inactive)	1.67 µM (inactive)	2.28 µM (inactive)	2.17 µM (inactive)	2.47 µM (inactive)	2.09 µM (inactive)	1.69 µM (inactive)
O=c1[nH]nc(-c2ccc([N+](=O)[O-])cc2)[nH]1	> 100 µM (inactive)	> 100 µM (inactive)	> 100 µM (inactive)	> 100 µM (inactive)	> 100 µM (inactive)	> 100 µM (inactive)	> 100 µM (inactive)	> 100 µM (inactive)	> 100 µM (inactive)	> 100 µM (inactive)	> 100 µM (inactive)	> 100 µM (inactive)	> 100 µM (inactive)	> 100 µM (inactive)	> 100 µM (inactive)	> 100 µM (inactive)	> 100 µM (inactive)	> 100 µM (inactive)	> 100 µM (inactive)	> 100 µM (inactive)
Cc1nc(-n2nc(-c3ccccc3)cc2-c2ccccc2)sc1C(/C=C\c1ccc([N+](=O)[O-])cc1)=N/NC(=S)NN	18.7 µM (inactive)	> 42.5 µM (inactive)	19.5 µM (inactive)	> 52.5 µM (inactive)	26.1 µM (inactive)	34.4 µM (inactive)	15.4 µM (inactive)	> 100 µM (inactive)	22 µM (inactive)	> 58.6 µM (inactive)	22.1 µM (inactive)	33.5 µM (inactive)	> 46.8 µM (inactive)	16.7 µM (inactive)	37.4 µM (inactive)	13.8 µM (inactive)	24.2 µM (inactive)	21.7 µM (inactive)	74.3 µM (inactive)	> 43.9 µM (inactive)
O=C1c2ccccc2CC12Cc1ccccc1C2	37.3 µM (inactive)	48.3 µM (inactive)	44.1 µM (inactive)	16.6 µM (inactive)	35.8 µM (inactive)	49.1 µM (inactive)	53.5 µM (inactive)	55 µM (inactive)	56.4 µM (inactive)	70 µM (inactive)	> 100 µM (inactive)	57.9 µM (inactive)	44 µM (inactive)	80.4 µM (inactive)	20.6 µM (inactive)	> 100 µM (inactive)	> 100 µM (inactive)	69.3 µM (inactive)	18.2 µM (inactive)	40.1 µM (inactive)
N#CC(NCCc1ccccc1)c1ccccc1 (stereo not drawn)	> 100 µM (inactive)	> 100 µM (inactive)	> 100 µM (inactive)	> 100 µM (inactive)	> 100 µM (inactive)	> 100 µM (inactive)	> 100 µM (inactive)	> 100 µM (inactive)	> 100 µM (inactive)	> 100 µM (inactive)	> 100 µM (inactive)	> 100 µM (inactive)	> 100 µM (inactive)	> 100 µM (inactive)	> 100 µM (inactive)	> 100 µM (inactive)	> 100 µM (inactive)	> 100 µM (inactive)	> 100 µM (inactive)	> 100 µM (inactive)
COc1cc(/C=C/C(=O)c2c([O-])on[n+]2-c2ccccc2)ccc1O	4.09 µM (inactive)	3 µM (inactive)	2.19 µM (inactive)	0.853 µM (active)	2.09 µM (inactive)	3.43 µM (inactive)	3.49 µM (inactive)	2.75 µM (inactive)	2.32 µM (inactive)	2.78 µM (inactive)	2.69 µM (inactive)	2.07 µM (inactive)	2.29 µM (inactive)	2.4 µM (inactive)	2 µM (inactive)	7.89 µM (inactive)	2.58 µM (inactive)	2.03 µM (inactive)	2.5 µM (inactive)	3.25 µM (inactive)
NCCc1c[nH]c2ccc(OC(=O)C(=O)O)cc12	> 100 µM (inactive)	> 100 µM (inactive)	> 100 µM (inactive)	0.302 µM (active)	> 100 µM (inactive)	> 100 µM (inactive)	> 100 µM (inactive)	> 100 µM (inactive)	> 100 µM (inactive)	> 100 µM (inactive)	> 100 µM (inactive)	> 100 µM (inactive)	> 100 µM (inactive)	> 100 µM (inactive)	> 100 µM (inactive)	> 100 µM (inactive)	> 100 µM (inactive)	> 100 µM (inactive)	> 100 µM (inactive)	> 100 µM (inactive)
CC1C(c2ccc3c(c2)OCO3)c2cc3c(cc2OC1N1CCOCC1)OCO3 (stereo not drawn)	26.6 µM (inactive)	15.2 µM (inactive)	16 µM (inactive)	13.8 µM (inactive)	20.9 µM (inactive)	24.7 µM (inactive)	20.8 µM (inactive)	5.6 µM (inactive)	6.28 µM (inactive)	28.8 µM (inactive)	26.5 µM (inactive)	29.2 µM (inactive)	20 µM (inactive)	32.5 µM (inactive)	20.4 µM (inactive)	24 µM (inactive)	18.3 µM (inactive)	33.1 µM (inactive)	32.8 µM (inactive)	18.1 µM (inactive)
CC(C)/C=N\N1C(N)=C(C#N)C(C#N)(C#N)C1C(C)C (stereo not drawn)	60.4 µM (inactive)	85.1 µM (inactive)	47.9 µM (inactive)	32.4 µM (inactive)	31.8 µM (inactive)	66.1 µM (inactive)	55.5 µM (inactive)	23.4 µM (inactive)	22.4 µM (inactive)	> 100 µM (inactive)	64.9 µM (inactive)	–	48.2 µM (inactive)	25.1 µM (inactive)	17.2 µM (inactive)	> 100 µM (inactive)	22.7 µM (inactive)	69.8 µM (inactive)	42.8 µM (inactive)	38 µM (inactive)
C=C1C(=O)OC2/C=C(/C)C(OC(C)=O)CC(O)/C(C)=C\C(OC(=O)/C(C)=C\C)C12 (stereo not drawn)	> 100 µM (inactive)	30.5 µM (inactive)	18.2 µM (inactive)	17 µM (inactive)	28.5 µM (inactive)	53.6 µM (inactive)	34 µM (inactive)	81.8 µM (inactive)	48.1 µM (inactive)	14.3 µM (inactive)	> 100 µM (inactive)	> 100 µM (inactive)	46.6 µM (inactive)	35.3 µM (inactive)	51.9 µM (inactive)	> 100 µM (inactive)	> 100 µM (inactive)	50.6 µM (inactive)	> 100 µM (inactive)	–
